Assay results reported in article PMC9606171, “Synthetic PPAR Agonist DTMB Alleviates Alzheimer’s Disease Pathology by Inhibition of Chronic Microglial Inflammation in 5xFAD Mice” (Neurotherapeutics, 2022).
Like-named read-outs stand apart in the source and are kept apart here.

Key:
[1] = biological target: T1, recombinant human PPARγ LBD (Homo sapiens, UniProt P37231); assay: CNBr-bead pull down assay, PPARγ LBD; assay type: binding; settings: drug conjugated CNBr beads
T1 sequence (P37231 238-503 limits assumed): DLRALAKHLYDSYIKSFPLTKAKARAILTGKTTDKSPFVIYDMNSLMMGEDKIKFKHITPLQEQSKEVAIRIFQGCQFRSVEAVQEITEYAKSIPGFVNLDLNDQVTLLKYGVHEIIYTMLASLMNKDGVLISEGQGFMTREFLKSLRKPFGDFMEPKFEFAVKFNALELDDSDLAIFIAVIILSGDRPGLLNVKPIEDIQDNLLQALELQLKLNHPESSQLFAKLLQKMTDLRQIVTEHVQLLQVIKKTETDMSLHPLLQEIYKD
Description: CNBr Sepharose 4B beads were prepared and activated according to the instruction. 100 mg of CNBr activated Sepharose 4B beads were incubated with drugs or DMSO for 18 h at 4 °C. The drug conjugated beads reacted to his-tagged recombinant PPAR α, β/δ, and γ protein. After 24 h of incubation, we confirmed whether recombinant protein binds to the drug conjugated bead through western blotting experiment.

[2] = Pharmacokinetics and brain distribution after oral administration; assay type: in vivo, C57BL/6 mice; settings: male, C57BL/6, mouse, mice; for Kp: brain / plasma, po, 50 mg/kg
Description: To investigate the pharmacokinetics and brain distribution of DTMB, fifty-six male C57BL/6 mice (22–26 g) were fasted with water ad libitum for 16 h before oral administration of DTMB and randomly divided into seven groups (n=8 per each sampling time point). Mice were administered with a DTMB suspension in 1% carboxymethylcellulose at a dose of 50 mg/kg via oral gavage, and blood samples (approximately 0.1 mL) were collected at 0, 0.16, 0.5, 1, 4, 8, and 24 h via the abdominal artery. Subsequently, whole brain tissues were isolated, weighed, and homogenized with two volume of ice-cold 80% methanol solution using a tissue grinder. Blood samples were centrifuged at 12,000 g for 1 min to separate plasma. Aliquots of plasma (30 µL) and brain homogenate (50 µL) samples were stored at − 80 °C until analysis. Concentrations of DTMB in plasma and brain homogenate samples were analyzed using an Agilent 6470 triple quadrupole liquid chromatography-mass spectrometry (LC–MS/MS) system (Agilent, Wilmington, DE, USA). Aliquots of plasma (30 µL each) and brain homogenate (50 µL each) were added to 100 μL of internal standard solution (IS; berberin 0.1 ng/mL in methanol) and vigorously mixed for 5 min. After centrifugation at 16,000 g for 10 min, a 5 µL aliquot of the supernatant was injected into the LC–MS/MS system. DTMB was separated on a Synergi Polar RP column (2.0 × 150 mm, 4 μm particle size; Phenomenex, Torrence, CA, USA) using an isocratic mobile phase consisting of 10 mM ammonium formate buffer (10%) and methanol (90%) containing 0.1% formic acid at a flow rate of 0.25 mL/min. Quantification of the analyte peaks was carried out at m/z 513.2 → 283.0 for DTMB (TR (retention time) 4.7 min) and m/z 336.1 → 320.0 for berberine (TR 2.9 min) in a […] ionization mode with optimized fragmentor of 135 V and collision energy of 25 or 30 eV, respectively. The pharmacokinetic parameters of DTMB in the plasma and brain were determined by the non-compartmental analysis (WinNonlin® 5.1; Pharsight, Mountain View, CA, USA). Elimination half-life (T1/2) was calculated from the elimination coefficient (K) of DTMB concentrations. Cmax indicated the maximum plasma concentrations and Tmax indicated time to reach Cmax. AUClast and AUCinf were calculated from the area under plasma concentrations curve from zero to the last time point and to infinity, respectively.

[3] = system: 5xFAD mice; assay: Immunohistochemistry of gliosis (Iba-1, GFAP) in 5xFAD brain; assay type: in vivo; settings: cortex and hippocampus, versus transgenic controls
Description: DTMB was synthesized from Daejung Chemicals (Korea) and was dissolved in dimethyl sulfoxide (Sigma Aldrich, St. Louis, MO, USA) for cell-based experiments. To evaluate the effects of DTMB on 5xFAD mice, DTMB (10 mg/kg) and vehicle (1% carboxymethylcellulose and 10% DMSO) were orally administrated to four groups (wild-type, wild-type + DTMB, 5xFAD, and 5xFAD + DTMB) with a 6 day per week for 3 months.
Mice were perfused with ice-cold phosphate-buffered saline (PBS). Brain tissues were separately used for either molecular analysis or immunohistochemistry. The right hemisphere was fixed with 4% PFA and was transferred to a sucrose solution (30%) for 24 h. The right hemisphere was embedded and frozen in optimal cutting temperature compound on dry ice. Coronal Sections (18 μm thick) that included the hippocampus were cut and prepared on slide glasses. Tissue sections were then permeabilized and blocked using a blocking solution (5% goat serum and 0.2% Triton X-100 in PBS) for 1 h at room temperature. Primary antibody incubation was performed overnight at 4 °C using an anti-6e10 antibody (Biolegend, Japan, 1:100), anti-Iba1 antibody (Wako, Japan, 1:200), and anti-GFAP antibody (Abcam, Cambridge, UK, 1:200). […] Slides were counterstained in Hoechst and then mounted in fluorescence mounting medium (Dako, Denmark). […] Fluorescence was measured by calculating % area and was analyzed using ImageJ. […]

[4] = system: primary microglia; assay: ELISA of proinflammatory cytokines, primary microglia; assay type: cell-based, mice; settings: LPS or pre-aggregated human Aβ1-42, 24 h
Description: Primary microglia culture was conducted as described in a previous study. Mice at postnatal day 3 mice were used for the preparation of primary microglia. Newborn mice pups were anesthetized in ice and then sacrificed. Isolated cortex and hippocampus were collected after removing the meninges. Brain tissues were dissociated by incubating in HBSS (Gibco, Gaithersburg, MD, USA) with trypsin (2.5%) for 15 min. Cell homogenates were then incubated in M-CSF (20 ng/mL, R&D Systems) supplemented with DMEM-F12 medium with 10% fetal bovine serum, 10% horse serum, 1% GlutaMAX (Gibco, MD, USA), and 1% penicillin/streptomycin (Welgene, Korea). After 10 days, microglia were purified through shaking at 260 rpm for 2 h.
We measured cytokine level (TNF-α, IL-1β, and IL-6) in the media of LPS (1 μg/mL) and human Aβ1-42 (5 μg/mL)-treated BV2 microglia cells and primary microglia. Human Aβ1-42 (AnaSpec, Fremont, CA, USA) were pre-aggregated in the incubator for 24 h before the treatment to the cells. BV2 cells and primary microglia cells were seeded on 12-well plates (SPL) at a density of 1 × 10^5 cells/well cultured in 1 mL of complete media. After 12 h, LPS or human Aβ1-42 were treated to cells and were further incubated for 24 h with DTMB. […]

binding to PPAR LBD (pull-down, western blot) [1]: binds
Kp ([2]; oral, plasma concentration range 0.63–66.9 ng/mL, read-out: mean brain DTMB concentration ratio over the plasma DTMB ([Brain]/[Plasma])): 2.69
Kp ([2]; printed in the Brain column, 50 mg/kg oral, read-out: AUC ratio): 3.53
Tmax ([2]; Brain, 50 mg/kg oral): 0.94 ± 0.18 h
half-life ([2]; Brain, 50 mg/kg oral): 4.41 ± 1.11 h
Tmax ([2]; Plasma, 50 mg/kg oral): 0.75 ± 0.27 h
half-life ([2]; Plasma, 50 mg/kg oral): 1.64 ± 0.27 h
SMILES: COc1ccc(-c2cc(=O)oc3c(C)c(OC(=O)[C@H](Cc4c[nH]c5ccccc45)NC(=O)OC(C)(C)C)ccc23)cc1 [DTMB]
percentage of areas stained for Iba-1 and GFAP (gliosis of microglia and astrocyte) [3]: decreased
level of cytokines (TNF-α, IL-1β, IL-6) induced by inflammatory signals [4]: dramatically reduced
